Here are results for 15 molecules from patent publication US9193687B2 (priority 2007, dated 2015).

The test system of assay [1] is CCRF-CEM human lymphoblastic leukemia cells. Nature of the assay: cells. The conditions noted are these: 72 h, read-out: Cytotoxicity IC50, CCRF-CEM.
Another assay deals with CCRF-CEM/Taxol. Nature of the assay: In vitro cytotoxicity, XTT assay, taxol-resistant subline. The conditions noted are these: Homo sapiens, CCRF-CEM, 72 h, read-out: Cytotoxicity IC50, CCRF-CEM/Taxol. (Tetrazolium assays rely on reduction of a dye to a coloured formazan, in cell work by metabolically active cells.)
The subject of assay [2] is Human mammary carcinoma (MX-1) tumor cells. The experiment in a line: In vitro cytotoxicity, SRB assay, 72-hr incubation. The conditions noted are these: Homo sapiens, 72 h, read-out: Cytotoxicity IC50, MX-1.
The subject of assay [3] is Human colon carcinoma HCT-116 cells. The experiment in a line: cells. To be noted: HCT-116, 72 h, read-out: Cytotoxicity IC50, HCT-116.

pIC50: −log10 of the molar value.

As to `O=C(Nc1ccc(Nc2cc(-c3ccccc3)nc3ccccc23)cc1)Nc1ccc(N(CCCl)CCCl)cc1` [BO-2294], the pIC50 in assay [1] was 5.52.

In the case of `CC[C@]1(O)C[C@@H]2CN(CCc3c([nH]c4ccccc34)[C@@](C(=O)OC)(c3cc4c(cc3OC)N(C)[C@H]3[C@@](O)(C(=O)OC)[C@H](OC(C)=O)[C@]5(CC)C=CCN6CC[C@]43[C@@H]65)C2)C1` [Vinblastine, reference compound], in the assay with CCRF-CEM/Taxol, the pIC50 is 7.10.

As to `COc1ccc(Nc2c3ccccc3nc3ccccc23)cc1NC(=O)Oc1ccc(N(CCCl)CCCl)cc1` [BO-1172], the pIC50 in assay [2] is 6.74; with CCRF-CEM/Taxol it was 6.80; in assay [3] it was 6.72; in assay [1], 7.05.

For the molecule `CC(=O)O[C@H]1C(=O)[C@@]2(C)[C@H]([C@H](OC(=O)c3ccccc3)[C@]3(O)C[C@H](OC(=O)[C@H](O)[C@@H](NC(=O)c4ccccc4)c4ccccc4)C(C)=C1C3(C)C)[C@]1(OC(C)=O)CO[C@@H]1C[C@@H]2O` [Taxol, reference compound], the pIC50 is 7.40 in assay [2] and 6.37 with CCRF-CEM/Taxol.

On to `COc1ccc(Nc2c3ccccc3nc3c(C)cccc23)cc1NC(=O)Nc1ccc(N(CCCl)CCCl)cc1` [BO-1154], for which the pIC50 in assay [2] is 6.43; with CCRF-CEM/Taxol, 8.00; in assay [3] it was 7.15; in assay [1] it was 8.00.

In the case of `O=C(Nc1ccc(N(CCCl)CCCl)cc1)Nc1cccc(Nc2cc(-c3ccccc3)nc3ccccc23)c1` [BO-2295], the pIC50 in assay [1] is 5.73.

Consider `Cc1ccc(NC(=O)Nc2ccc(N(CCCl)CCCl)cc2)cc1Nc1c2ccccc2nc2c(C)cccc12` [BO-1149], for which the pIC50 in assay [2] was 6.23; with CCRF-CEM/Taxol, 7.70; in assay [3] it was 6.80; in assay [1] it was 8.00.

On to `Cc1cc(NNC(=O)Nc2ccc(N(CCCl)CCCl)cc2)c2cc(N(C)C)ccc2n1` [BO-1242], for which the pIC50 in assay [2] is 6.55; in the assay on CCRF-CEM/Taxol it was 5.38; in assay [3], 6.82; in assay [1], 7.22.

Take `O=C(Nc1ccc(N(CCCl)CCCl)cc1)Nc1c2ccccc2nc2ccccc12` [BO-1034, 1-acridin-9-yl-3-{4-[bis(2-chloroethyl)amino]phenyl}urea]: the pIC50 was 6.09 in assay [2], 6.41 in the assay on CCRF-CEM/Taxol, 6.05 in assay [3] and 6.64 in assay [1].

In the case of `COc1ccc2nc(C)cc(NNC(=O)Nc3ccc(N(CCCl)CCCl)cc3)c2c1` [BO-1228, N-{4-[bis(2-chloroethyl)amino]phenyl}-2-(6-methoxy-2-methyl-4-quinolinyl)hydrazinecarboxamide], the pIC50 was 6.59 in assay [2], 5.81 in the assay with CCRF-CEM/Taxol, 6.59 in assay [3] and 6.70 in assay [1].

With `COc1ccc(Nc2c3ccccc3nc3ccccc23)cc1NC(=O)Nc1ccc(N(CCCl)CCCl)cc1` [BO-1148], the pIC50 in assay [2] was 5.92; with CCRF-CEM/Taxol, 7.52; in assay [3], 6.59; in assay [1] it was 8.00.

In the case of `Cc1cc(NC(=O)Nc2ccc(N(CCCl)CCCl)cc2)c2cc(N(C)C)ccc2n1` [BO-1231], the pIC50 in assay [2] was 6.74; in the assay on CCRF-CEM/Taxol, 6.51; in assay [3], 6.52; in assay [1] it was 6.96.

For `O=C(NNc1cc(-c2ccccc2)nc2ccccc12)Nc1ccc(N(CCCl)CCCl)cc1` [BO-1393], the pIC50 was 5.75 in assay [2], 6.04 with CCRF-CEM/Taxol, 5.90 in assay [3] and 6.24 in assay [1].

Consider `COc1ccc(Nc2c3ccccc3nc3c(C)cccc23)cc1NC(=O)Oc1ccc(N(CCCl)CCCl)cc1` [BO-1213], for which the figures for the pIC50 (in assay [2]; with CCRF-CEM/Taxol; in assay [1]) were 6.85, 7.52 and 7.70, respectively.

In the case of `Cc1ccc(Nc2c3ccccc3nc3ccccc23)cc1NC(=O)Oc1ccc(N(CCCl)CCCl)cc1` [BO-1171], the pIC50 in assay [2] is 6.68; in the assay with CCRF-CEM/Taxol, 6.66; in assay [3] it was 6.37; in assay [1] it was 7.10.
